Test results: BindingDB's records for patent US20250243196 (The Cleveland Clinic Foundation, 2025)

molecular target: Citron Rho-interacting kinase (Homo sapiens, UniProt O14578); assay: TR-FRET Based Assay
Source text: Not found

Chain of Citron Rho-interacting kinase (O14578 whole entry): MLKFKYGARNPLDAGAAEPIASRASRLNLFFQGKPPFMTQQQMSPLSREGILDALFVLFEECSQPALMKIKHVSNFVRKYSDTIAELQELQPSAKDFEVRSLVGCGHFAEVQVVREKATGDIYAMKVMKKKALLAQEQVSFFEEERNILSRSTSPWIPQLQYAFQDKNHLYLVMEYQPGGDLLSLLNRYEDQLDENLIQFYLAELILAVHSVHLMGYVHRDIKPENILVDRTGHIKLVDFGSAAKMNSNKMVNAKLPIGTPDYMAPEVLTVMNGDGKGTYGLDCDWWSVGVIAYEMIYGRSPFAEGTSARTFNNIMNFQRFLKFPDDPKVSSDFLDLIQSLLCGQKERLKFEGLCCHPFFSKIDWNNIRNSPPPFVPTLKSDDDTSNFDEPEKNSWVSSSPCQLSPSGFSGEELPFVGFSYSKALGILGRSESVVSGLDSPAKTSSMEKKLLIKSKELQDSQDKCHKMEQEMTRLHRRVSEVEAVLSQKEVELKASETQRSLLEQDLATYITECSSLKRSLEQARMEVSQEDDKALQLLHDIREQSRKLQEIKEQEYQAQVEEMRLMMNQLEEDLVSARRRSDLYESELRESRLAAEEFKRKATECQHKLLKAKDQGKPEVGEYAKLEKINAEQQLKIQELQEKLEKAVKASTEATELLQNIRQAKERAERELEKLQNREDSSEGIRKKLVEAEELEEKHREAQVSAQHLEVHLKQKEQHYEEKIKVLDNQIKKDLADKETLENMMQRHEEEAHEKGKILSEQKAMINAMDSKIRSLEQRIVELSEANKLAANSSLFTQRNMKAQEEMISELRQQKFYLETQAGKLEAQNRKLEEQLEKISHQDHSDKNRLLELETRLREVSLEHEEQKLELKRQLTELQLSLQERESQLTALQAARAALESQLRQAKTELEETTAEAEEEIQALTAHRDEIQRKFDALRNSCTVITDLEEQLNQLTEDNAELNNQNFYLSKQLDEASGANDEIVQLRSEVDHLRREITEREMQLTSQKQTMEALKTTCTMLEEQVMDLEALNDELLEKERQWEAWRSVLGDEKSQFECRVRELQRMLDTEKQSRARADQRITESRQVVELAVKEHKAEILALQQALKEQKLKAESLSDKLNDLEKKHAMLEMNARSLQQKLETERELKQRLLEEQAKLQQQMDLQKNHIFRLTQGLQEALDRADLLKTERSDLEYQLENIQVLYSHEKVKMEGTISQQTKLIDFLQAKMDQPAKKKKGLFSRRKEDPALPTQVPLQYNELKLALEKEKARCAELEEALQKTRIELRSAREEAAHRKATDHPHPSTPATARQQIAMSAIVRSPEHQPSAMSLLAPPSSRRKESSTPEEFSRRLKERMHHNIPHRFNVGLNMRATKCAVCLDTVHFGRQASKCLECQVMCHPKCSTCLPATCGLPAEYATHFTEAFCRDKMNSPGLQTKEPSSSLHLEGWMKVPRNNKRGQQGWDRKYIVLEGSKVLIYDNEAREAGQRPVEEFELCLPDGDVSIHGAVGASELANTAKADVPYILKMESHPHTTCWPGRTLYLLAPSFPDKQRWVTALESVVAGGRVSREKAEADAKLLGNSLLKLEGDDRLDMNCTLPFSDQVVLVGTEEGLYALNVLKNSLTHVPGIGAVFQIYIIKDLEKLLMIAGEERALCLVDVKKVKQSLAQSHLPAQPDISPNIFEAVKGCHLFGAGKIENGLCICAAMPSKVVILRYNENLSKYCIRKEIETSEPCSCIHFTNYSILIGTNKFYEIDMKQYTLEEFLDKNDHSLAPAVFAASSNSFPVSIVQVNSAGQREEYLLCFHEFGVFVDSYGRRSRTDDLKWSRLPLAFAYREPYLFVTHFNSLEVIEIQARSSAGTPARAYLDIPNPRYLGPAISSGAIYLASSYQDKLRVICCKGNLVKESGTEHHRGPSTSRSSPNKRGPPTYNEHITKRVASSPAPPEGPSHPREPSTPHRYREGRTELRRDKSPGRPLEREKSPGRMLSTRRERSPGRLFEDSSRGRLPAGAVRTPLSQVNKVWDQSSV

Row | IC50 [µM] | SMILES
1 | 1.77 | NC(Cc1ccccc1Cl)C(=O)Nc1ccc(-c2ccnc3[nH]ccc23)cc1 (stereo unspecified) [US20250243196, Compound F-125]
2 | 3 | CNC(Cc1ccccc1)C(=O)Nc1ccc(-c2ccnc3[nH]ccc23)cc1 (stereo unspecified) [US20250243196, Compound F-121]
3 | 1.29 | NC(Cc1ccc(Cl)cc1)C(=O)Nc1ccc(-c2ccnc3[nH]ccc23)cc1 (stereo unspecified) [US20250243196, Compound F-123]
4 | 1.5 | CN(C)C(Cc1ccccc1)C(=O)Nc1ccc(-c2ccnc3[nH]ccc23)cc1 (stereo unspecified) [US20250243196, Compound F-122]
5 | 0.153 | NC(CC1CCOCC1)C(=O)Nc1ccc(-c2ccnc3[nH]ccc23)cc1 (stereo unspecified) [US20250243196, Compound F-120]
6 | 0.536 | NC(Cc1cccc(Cl)c1)C(=O)Nc1ccc(-c2ccnc3[nH]ccc23)cc1 (stereo unspecified) [US20250243196, Compound F-124]
